# Data reported in US6156700A, “3-(1,2-Benzisothiazol- and isoxazol-5-yl)-2,4(1H,3H)-pyrimidinedione or thione and 3-(1,2-benzisothiazol- and isoxazol-5-yl)-4(3H)-pyrimidinone or thione herbicidal agents” (American Cyanmid Company, priority 1998, dated 2000).
# Where “and” joins values, the source holds several entries; their conditions need not be identical. Equal values may be shown once.
# What was measured:
# [1] = system: Lambsquarters, Common, Chenopodium album; assay: Postemergence herbicidal evaluation, CHEAL; assay type: in vivo, L.
# Outline: (§1)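 Visual 0–9 scoring against untreated control, made four to five weeks post-spray and averaged over repeat tests, covers stand, vigor, malformation, size and chlorosis. Treatment: foliar spray at 40 psi onto ~2-week seedlings, about 0.0157–0.500 kg/ha, compound in 1:1 acetone/water with 0.5% TWEEN 20.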
# [2] = system: Morningglory, Ivyleaf, Ipomoea hederacea; assay: Postemergence herbicidal evaluation, IPOHE; assay type: in vivo, (L.) Jacq.; conditions: 0.0630 kg/ha
# Outline: as §1
# [3] = system: Soybean, Glycine max; assay: Preemergence herbicidal evaluation, GLXMA; assay type: in vivo, (L.) Merr.; conditions: 0.2500 kg/ha
# Excerpt: Results of herbicide evaluation are expressed on a rating scale (0-9). The scale is based upon a visual observation of plant stand, vigor, malformation, size, chlorosis and overall plant appearance as compared with a control.
# The preemergence herbicidal activity of the test compounds of the present invention is exemplified by the following tests in which the seeds of a variety of monocotyledonous and dicotyledonous plants are separately mixed with potting soil and planted on top of approximately one inch of soil in separate pint cups. After planting, the cups are sprayed with the selected aqueous acetone solution containing test compound in sufficient quantity to provide the equivalent of about 0.0156 to 0.500 kg per hectare of test compound per cup. The treated cups are then placed on greenhouse benches, watered and cared for in accordance with conventional greenhouse procedures. From four to five weeks after treatment, the tests are terminated and each cup is examined and rated according to the rating system provided in Example 185.
# The compounds evaluated are reported by compound number given in Example 185.
# [4] = system: Soybean, Williams, Glycine max; assay: Preemergence herbicidal evaluation, GLXMAW; assay type: in vivo, (L.) Merr. cv Williams; conditions: 0.2500 kg/ha
# Outline: (§2)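 Seeds sown in potting soil in cups, then sprayed preemergence with compound in aqueous acetone at about 0.0156 to 0.500 kg per hectare. Greenhouse-grown; rated visually 4–5 weeks after treatment on a 0–9 scale (stand, vigor, malformation, size, chlorosis, appearance) versus untreated control.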
# [5] = system: Morningglory, Ivyleaf, Ipomoea hederacea; assay: Preemergence herbicidal evaluation, IPOHE; assay type: in vivo, (L.) Jacq.; conditions: 0.2500 kg/ha
# Outline: as §2
# [6] = system: ZEAMX; assay: Postemergence herbicidal evaluation; assay type: in vivo
# [7] = system: CHEAL; assay: Postemergence herbicidal evaluation; assay type: in vivo
# [8] = system: SETVI; assay: Preemergence herbicidal evaluation; assay type: in vivo; set-up: scale not given here
# [9] = system: CHEAL; assay: Preemergence herbicidal evaluation; assay type: in vivo; set-up: scale not given here
# [10] = system: TRZAWR; assay: Preemergence herbicidal evaluation; assay type: in vivo; set-up: scale not given here
# [11] = system: GALAP; assay: Preemergence herbicidal evaluation; assay type: in vivo; set-up: scale not given here
# [12] = system: ECHCG; assay: Preemergence herbicidal evaluation; assay type: in vivo; set-up: scale not given here
# [13] = system: IPOSS; assay: Preemergence herbicidal evaluation; assay type: in vivo; set-up: scale not given here
# [14] = system: SETVI; assay: Postemergence herbicidal evaluation; assay type: in vivo
# [15] = system: ECHCG; assay: Postemergence herbicidal evaluation; assay type: in vivo
# [16] = system: ABUTH; assay: Postemergence herbicidal evaluation; assay type: in vivo
# [17] = system: TRZAWR; assay: Postemergence herbicidal evaluation; assay type: in vivo
# [18] = system: GLXMA; assay: Preemergence herbicidal evaluation; assay type: in vivo
# [19] = system: CASOB; assay: Postemergence herbicidal evaluation; assay type: in vivo
structure (smiles),measurement,setting,value
COC(=O)C(C)Oc1ccc(C)cc1-c1nsc2ccc(-n3c(=O)cc(C(F)(F)F)n(C)c3=O)cc12 (stereo not drawn) [Compound 3],herbicide rating (0-9),[1]; 0.0630 kg/ha,9.0
same,herbicide rating (0-9),[1]; 0.2500 kg/ha,9.0
same,herbicide rating (0-9),[2],9.0
same,herbicide rating (0-9),[3],4.0
same,herbicide rating (0-9),[4],5.0
same,herbicide rating (0-9),[5],9.0
"COC(=O)COc1ccc(C)cc1-c1nsc2ccc(-n3c(=O)cc(C(F)(F)F)n(C)c3=O)cc12 [Compound 2, Methyl {{2-{5-[3,6-dihydro-3-methyl-4-(trifluoromethyl) -2,6-dioxo-1(2H)-pyrimidinyl]-1,2-benzisothiazol-3-yl]-p-tolyl}oxy}acetate]",herbicide rating (0-9),[1]; 0.0630 kg/ha,9.0
same,herbicide rating (0-9),[1]; 0.2500 kg/ha,9.0
same,herbicide rating (0-9),[2],9.0
same,herbicide rating (0-9),[3],7.0
same,herbicide rating (0-9),[4],8.5
same,herbicide rating (0-9),[5],9.0
"Cc1nsc2ccc(-n3c(=O)cc(C(F)(F)F)n(C)c3=O)cc12 [Compound 6, 1-Methyl-3-(3-methyl-1,2-benzisothiazol-5-yl)-6-(trifluoromethyl)-2,4(1H,3H)-pyrimidinedione]",herbicidal effect rating,[6]; 0.0157-0.0160 kg/ha,3.5 and 4.0 and 2.0
same,herbicidal effect rating,[6]; 0.0313-0.0320 kg/ha,3.8 and 4.3 and 3.5
same,herbicidal effect rating,[6]; 0.0625-0.0640 kg/ha,5.0 and 4.5 and 3.5
same,herbicidal effect rating,[6]; 0.1250 kg/ha,3.5
same,herbicidal effect rating,[6]; 0.2500 kg/ha,3.5
same,herbicidal effect rating,[6]; 0.5000 kg/ha,3.0
same,herbicide rating (0-9),[1]; 0.0630 kg/ha,7.0
same,herbicide rating (0-9),[1]; 0.2500 kg/ha,9.0
same,herbicidal effect rating,[7]; 0.0313-0.0320 kg/ha,6.5 and 5.0 and 9.0
same,herbicidal effect rating,[7]; 0.0625-0.0640 kg/ha,9.0 and 7.0
same,herbicidal effect rating,[7]; 0.1250 kg/ha,9.0
same,herbicidal effect rating,[7]; 0.2500 kg/ha,9.0
same,herbicidal effect rating,[7]; 0.5000 kg/ha,9.0
same,herbicide rating (0-9),[2],5.0
same,herbicidal effect rating,[8]; 0.0313-0.0320 kg/ha,8.4 and 9.0 and 5.5
same,herbicidal effect rating,[8]; 0.0620-0.0630 kg/ha,9.0 and 6.0
same,herbicidal effect rating,[8]; 0.1250 kg/ha,9.0
same,herbicidal effect rating,[8]; 0.2500 kg/ha,9.0
same,herbicidal effect rating,[8]; 0.5000 kg/ha,9.0
same,herbicidal effect rating,[9]; 0.0156-0.0160 kg/ha,8.8 and 9.0 and 5.0
same,herbicidal effect rating,[9]; 0.0313-0.0320 kg/ha,9.0 and 8.0
same,herbicidal effect rating,[9]; 0.0620-0.0630 kg/ha,9.0
same,herbicidal effect rating,[9]; 0.1250 kg/ha,9.0
same,herbicidal effect rating,[9]; 0.2500 kg/ha,9.0
same,herbicidal effect rating,[9]; 0.5000 kg/ha,9.0
same,herbicidal effect rating,[10]; 0.0156-0.0160 kg/ha,3.0 and 3.5
same,herbicidal effect rating,[10]; 0.0313-0.0320 kg/ha,5.6 and 6.5 and 6.3
same,herbicidal effect rating,[10]; 0.0620-0.0630 kg/ha,7.0 and 8.3
same,herbicidal effect rating,[10]; 0.1250 kg/ha,8.7
same,herbicidal effect rating,[10]; 0.2500 kg/ha,8.0
same,herbicidal effect rating,[10]; 0.5000 kg/ha,9.0
same,herbicidal effect rating,[11]; 0.0156-0.0160 kg/ha,4.8 and 8.5
same,herbicidal effect rating,[11]; 0.0313-0.0320 kg/ha,5.3 and 8.5 and 9.0
same,herbicidal effect rating,[11]; 0.0620-0.0630 kg/ha,9.0
same,herbicidal effect rating,[11]; 0.1250 kg/ha,9.0
same,herbicidal effect rating,[11]; 0.2500 kg/ha,9.0
same,herbicidal effect rating,[11]; 0.5000 kg/ha,9.0
same,herbicidal effect rating,[12]; 0.0313-0.0320 kg/ha,5.6 and 8.0 and 4.5
same,herbicidal effect rating,[12]; 0.0620-0.0630 kg/ha,9.0 and 5.5
same,herbicidal effect rating,[12]; 0.1250 kg/ha,6.0
same,herbicidal effect rating,[12]; 0.2500 kg/ha,9.0
same,herbicidal effect rating,[12]; 0.5000 kg/ha,9.0
same,herbicidal effect rating,[13]; 0.0156-0.0160 kg/ha,7.5
same,herbicidal effect rating,[13]; 0.0313-0.0320 kg/ha,7.5 and 7.0
same,herbicidal effect rating,[13]; 0.0620-0.0630 kg/ha,7.0
same,herbicidal effect rating,[13]; 0.1250 kg/ha,9.0
same,herbicidal effect rating,[13]; 0.2500 kg/ha,9.0
same,herbicidal effect rating,[13]; 0.5000 kg/ha,9.0
same,herbicidal effect rating,[14]; 0.1250 kg/ha,9.0
same,herbicidal effect rating,[14]; 0.2500 kg/ha,9.0
same,herbicidal effect rating,[14]; 0.5000 kg/ha,9.0
same,herbicidal effect rating,[15]; 0.0313-0.0320 kg/ha,1.0 and 2.0
same,herbicidal effect rating,[15]; 0.0625-0.0640 kg/ha,3.0 and 1.5 and 2.0
same,herbicidal effect rating,[15]; 0.1250 kg/ha,7.0
same,herbicidal effect rating,[15]; 0.2500 kg/ha,6.0
same,herbicidal effect rating,[15]; 0.5000 kg/ha,7.0
same,herbicidal effect rating,[16]; 0.0157-0.0160 kg/ha,5.7 and 5.0 and 8.0
same,herbicidal effect rating,[16]; 0.0313-0.0320 kg/ha,9.0
same,herbicidal effect rating,[16]; 0.0625-0.0640 kg/ha,9.0
same,herbicidal effect rating,[16]; 0.1250 kg/ha,9.0
same,herbicidal effect rating,[16]; 0.2500 kg/ha,9.0
same,herbicidal effect rating,[16]; 0.5000 kg/ha,9.0
same,herbicidal effect rating,[17]; 0.0625-0.0640 kg/ha,3.0 and 1.5 and 2.0
same,herbicidal effect rating,[17]; 0.1250 kg/ha,2.5
same,herbicidal effect rating,[17]; 0.2500 kg/ha,5.0
same,herbicidal effect rating,[17]; 0.5000 kg/ha,6.0
same,herbicidal effect rating,[18]; 0.0156-0.0160 kg/ha,2.0
same,herbicidal effect rating,[18]; 0.0313-0.0320 kg/ha,2.0
same,herbicidal effect rating,[18]; 0.0620-0.0630 kg/ha,4.0
same,herbicidal effect rating,[18]; 0.1250 kg/ha,7.0
same,herbicidal effect rating,[18]; 0.2500 kg/ha,9.0
same,herbicidal effect rating,[18]; 0.5000 kg/ha,9.0
same,herbicidal effect rating,[19]; 0.0157-0.0160 kg/ha,0.0
same,herbicidal effect rating,[19]; 0.0625-0.0640 kg/ha,2.5 and 4.0
same,herbicidal effect rating,[19]; 0.1250 kg/ha,7.0
same,herbicidal effect rating,[19]; 0.2500 kg/ha,8.0
same,herbicidal effect rating,[19]; 0.5000 kg/ha,7.0
same,herbicide rating (0-9),[3],9.0
